Assays:
[1] = xn = mol fraction of the nth substance listed; settings: 101 kPa, Liquid; for viscosity: Capillary tube (Ostwald / Ubbelohde) method; for mass density: Vibrating tube method
[2] = refractive index (Na D-line) (dimensionless); xn = mol fraction of the nth substance listed; settings: 101 kPa, Liquid, Standard Abbe refractometry

NC1CCCCC1 [cyclohexylamine] + CCCCCCCCCCO
Settings	mass density, [1] [kg/m3]	refractive index, [2]	viscosity, [1] [mPa·s]
293.15 K, x2 = 0.0957	–	1.4563	–
293.15 K, x2 = 0.153	860.33	1.45514	3.133
293.15 K, x2 = 0.1955	–	1.45413	–
293.15 K, x2 = 0.1956	858.62	–	3.48
293.15 K, x2 = 0.2939	855.14	1.45191	4.452
293.15 K, x2 = 0.3417	853.45	1.45101	5.014
293.15 K, x2 = 0.4077	851.25	1.44965	5.81
293.15 K, x2 = 0.4581	849.54	1.44855	6.48
293.15 K, x2 = 0.5059	847.91	1.44765	7.159
293.15 K, x2 = 0.5401	846.76	–	7.628
293.15 K, x2 = 0.6042	844.53	1.44562	8.558
293.15 K, x2 = 0.6538	842.75	1.44463	9.276
293.15 K, x2 = 0.7021	840.98	1.44358	9.963
293.15 K, x2 = 0.8084	837.02	1.44133	11.52
293.15 K, x2 = 0.8868	834.1	1.43957	12.69
298.15 K, x2 = 0.0957	–	1.45392	–
298.15 K, x2 = 0.153	856.19	1.45279	2.749
298.15 K, x2 = 0.1955	–	1.45174	–
298.15 K, x2 = 0.1956	854.54	–	3.049
298.15 K, x2 = 0.2939	851.2	1.44964	3.853
298.15 K, x2 = 0.3417	849.56	1.44874	4.308
298.15 K, x2 = 0.4077	847.42	1.44743	4.923
298.15 K, x2 = 0.4581	845.76	1.44648	5.456
298.15 K, x2 = 0.5059	844.17	1.44554	5.991
298.15 K, x2 = 0.5401	843.04	1.44481	6.38
298.15 K, x2 = 0.6042	840.86	1.44365	7.124
298.15 K, x2 = 0.6538	839.13	1.44254	7.689
298.15 K, x2 = 0.7021	837.39	1.44141	8.24
298.15 K, x2 = 0.8084	833.53	1.43935	9.512
298.15 K, x2 = 0.8868	830.66	1.43762	10.41
303.15 K, x2 = 0.0957	–	1.4514	–
303.15 K, x2 = 0.153	851.99	1.45031	2.406
303.15 K, x2 = 0.1955	–	1.44938	–
303.15 K, x2 = 0.1956	850.41	–	2.663
303.15 K, x2 = 0.2939	847.19	1.44747	3.347
303.15 K, x2 = 0.3417	845.61	1.44642	3.711
303.15 K, x2 = 0.4077	843.53	1.44514	4.216
303.15 K, x2 = 0.4581	841.91	1.44424	4.654
303.15 K, x2 = 0.5059	840.37	1.44335	5.075
303.15 K, x2 = 0.5401	839.27	1.44256	5.393
303.15 K, x2 = 0.6042	837.14	1.44137	5.985
303.15 K, x2 = 0.6538	835.46	1.44039	6.457
303.15 K, x2 = 0.7021	833.76	1.43943	6.893
303.15 K, x2 = 0.8084	829.98	1.43724	7.904
303.15 K, x2 = 0.8868	827.17	1.43565	8.649

NC1CCCCC1 [cyclohexylamine] + CCCCCCCO
Settings	mass density, [1] [kg/m3]	refractive index, [2]	viscosity, [1] [mPa·s]
293.15 K, x2 = 0.1018	863.57	–	2.454
293.15 K, x2 = 0.1499	861.92	1.45459	2.635
293.15 K, x2 = 0.1996	860.22	1.45301	2.838
293.15 K, x2 = 0.2982	856.82	1.44986	3.308
293.15 K, x2 = 0.3979	853.09	1.44669	3.844
293.15 K, x2 = 0.4004	–	1.44661	–
293.15 K, x2 = 0.4465	851.2	1.44519	4.118
293.15 K, x2 = 0.4931	849.3	1.44365	4.381
293.15 K, x2 = 0.5432	847.06	1.44192	4.66
293.15 K, x2 = 0.6008	844.43	1.43985	4.98
293.15 K, x2 = 0.6598	841.57	1.43777	5.267
293.15 K, x2 = 0.6969	–	1.4364	–
293.15 K, x2 = 0.7019	839.35	–	5.475
293.15 K, x2 = 0.7479	836.94	1.43438	5.687
293.15 K, x2 = 0.7967	834.16	1.43236	5.916
293.15 K, x2 = 0.8466	831.39	1.4305	6.158
293.15 K, x2 = 0.8935	828.7	1.42866	6.421
293.15 K, x2 = 0.9432	825.75	1.42665	6.717
298.15 K, x2 = 0.1018	859.27	1.45356	2.178
298.15 K, x2 = 0.1499	857.64	1.45216	2.338
298.15 K, x2 = 0.1996	856.01	1.45053	2.502
298.15 K, x2 = 0.2982	852.71	1.44763	2.892
298.15 K, x2 = 0.3979	849.06	–	3.334
298.15 K, x2 = 0.4004	–	1.44444	–
298.15 K, x2 = 0.4465	–	1.44298	–
298.15 K, x2 = 0.4565	847.21	–	3.558
298.15 K, x2 = 0.4931	845.34	1.44143	3.776
298.15 K, x2 = 0.5432	843.14	1.43977	4.007
298.15 K, x2 = 0.5946	–	1.43797	–
298.15 K, x2 = 0.6008	840.57	–	4.267
298.15 K, x2 = 0.6598	837.76	1.43561	4.478
298.15 K, x2 = 0.7019	835.59	1.43404	4.682
298.15 K, x2 = 0.7479	833.22	1.43244	4.828
298.15 K, x2 = 0.7967	830.49	1.43053	5.057
298.15 K, x2 = 0.8466	827.78	1.42852	5.232
298.15 K, x2 = 0.8935	825.11	1.42666	5.43
298.15 K, x2 = 0.9432	822.21	1.42476	5.673
303.15 K, x2 = 0.1018	854.9	1.45099	1.931
303.15 K, x2 = 0.1499	853.33	1.44958	2.059
303.15 K, x2 = 0.1996	851.74	1.44805	2.204
303.15 K, x2 = 0.2982	848.55	1.4452	2.531
303.15 K, x2 = 0.3979	845	1.44224	2.895
303.15 K, x2 = 0.4465	843.2	1.44068	3.079
303.15 K, x2 = 0.4931	841.35	1.43923	3.258
303.15 K, x2 = 0.5432	839.17	1.43752	3.443
303.15 K, x2 = 0.5946	–	1.43575	–
303.15 K, x2 = 0.6008	836.68	1.43554	3.658
303.15 K, x2 = 0.6598	833.93	1.43355	3.694
303.15 K, x2 = 0.7019	831.8	1.432	4.005
303.15 K, x2 = 0.7479	829.48	1.43042	3.974
303.15 K, x2 = 0.7967	826.8	1.42836	4.317
303.15 K, x2 = 0.8466	824.12	1.42657	4.283
303.15 K, x2 = 0.8935	821.5	1.42455	4.444
303.15 K, x2 = 0.9432	818.64	1.42262	4.626

From the NIST ThermoML archive (doi:10.1016/j.jct.2014.09.005)
